Measurements taken from EPA's ToxValDB 9.5 (doi:10.2903/j.efsa.2014.3814).
≈ marks a conversion by molar mass, not a printed value.

Assays:
[1] = tested on: Typhlodromus pyri; assay: LR50; higher = less toxic; details: not reported; mortality
[2] = tested on: Aphidius rhopalosiphi; assay: LR50; higher = less toxic; details: not reported; mortality
[3] = tested on: Pontoscolex corethrurus
[4] = tested on: Lepomis macrochirus; details: acute; duration: 96 hours; mortality
[5] = tested on: Hypoaspis aculeifer; details: chronic/long-term; duration: 14 days
[6] = tested on: Pimephales promelas; details: chronic/long-term; duration: 33 days; growth
[7] = tested on: Bibionidae; details: chronic/long-term; duration: 28 days
[8] = tested on: Canidae; details: chronic; duration: 1 years; oral; Dog Other; organ weight
[9] = tested on: Oryctolagus sp.; details: reproduction developmental; body weight
[10] = tested on: Ictalurus punctatus; details: acute; duration: 96 hours; mortality
[11] = tested on: Apis mellifera; details: acute, mortality
[12] = tested on: Folsomia candida; details: chronic/long-term; duration: 28 days
[13] = tested on: Rattus norvegicus
[14] = tested on: Colinus virginianus

In the case of CNC(=O)c1cc(C#N)cc(C)c1NC(=O)c1cc(Br)nn1-c1ncccc1Cl [Cyantraniliprole], the LR50 [1] was > 230 g/ha, the LR50 [2] was 0.102 g/ha and the LC50 ([3]; acute, duration: 14 days, mortality) was > 1000 mg/kg. The NOEC ([3]; chronic/long-term, duration: 56 days) was > 1000 mg/kg, the LC50 [4] was 2.4 µg/mL (≈ 5.07 µM) and the NOEC [5] was 1000 mg/kg. It also gave an NOEC [6] of 2.9 mg/L, an NOEC [7] of 0.01 mg/L and an NOAEL [8] of 1 mg/kg-day. For the same compound, the NOAEL [9] was 25 mg/kg-day, the LC50 [10] was > 10 µg/mL and the LD50 ([11]; dermal) was > 0.0934 µg/piece. For the same compound, the LD50 ([11]; oral, unspecified) was > 0.105 µg/piece, the NOEC [12] was 0.08 mg/kg and the LD50 ([13]; acute, oral, mortality) was > 5000 mg/kg. For the same compound, the NOAEL ([13]; reproduction developmental, organ weight) was 1.2 mg/kg-day, the LD50 ([14]; acute, oral) was > 2250 mg/kg and the LC50 ([14]; acute, oral, diet) was > 1340 mg/kg. It also gave an NOAEL ([14]; reproduction developmental) of 93.2 mg/kg-day.
